Measurements reported in patent US7511068B2, “Mercaptoimidazoles as CCR2 receptor antagonists” (Janssen Pharmaceutica, N.V., priority 2003, dated 2009).

Biological target: T1, CCR2 receptor (Homo sapiens, UniProt P41597)
T1 construct: host or cells: THP-1 human monocytic cell line
T1 sequence (P41597 1-360 isoform P41597-2): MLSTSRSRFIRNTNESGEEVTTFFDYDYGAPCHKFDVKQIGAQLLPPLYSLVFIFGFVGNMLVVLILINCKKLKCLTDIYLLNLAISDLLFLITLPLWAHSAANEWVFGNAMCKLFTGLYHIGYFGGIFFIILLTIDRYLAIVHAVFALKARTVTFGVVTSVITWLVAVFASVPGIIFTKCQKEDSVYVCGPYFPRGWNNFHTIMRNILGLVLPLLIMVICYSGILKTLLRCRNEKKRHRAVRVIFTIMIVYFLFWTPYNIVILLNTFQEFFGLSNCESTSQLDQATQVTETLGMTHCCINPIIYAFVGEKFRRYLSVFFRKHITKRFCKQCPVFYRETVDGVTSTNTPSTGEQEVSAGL
Test: Inhibition of MCP-1 induced Ca-flux in human THP-1 cells
Assay type: cell-based
Conditions: inhibition of specific MCP-1 (10^-7 M hMCP-1) induced Ca2+ flux in human THP-1 cells; pIC50 = -log IC50 (molar)
Experimental: C. Pharmacological Example Inhibition of MCP-1 Induced Ca-flux in Human THP-1 Cells
MCP-1 binding to the CCR2 receptor induces a rapid and transient intracellular release of Ca^2+ (secondary messenger) in several cell lines (Charo et al, PNAS 1994). Free Ca^2+ levels can be measured using a Ca^2+ sensitive dye. When the CCR2 receptor is blocked with a CCR2 receptor antagonist, the MCP-1 induced release of Ca^2+ is inhibited.
Human THP-1 cells (monocytic cell line, ATCC TIB-202) were cultured in RPMI 1640 medium supplemented with 10% fetal calf serum (FCS), 1% L-Glutamine, penicillin (50 U/ml) and streptomycin (50 μg/ml) (all GIBCO BRL, Gent). After centrifugation, cells were loaded for 30 minutes with the Ca^2+ sensitive fluorescent dye Fluo-3 AM (Molecular Probes, Leiden, Netherlands) (2 million cells/ml in RPMI medium containing 4 μM Fluo-3 AM, 20 mM HEPES, 0.1% Bovine Serum Albumin (BSA) and 5 mM probenecid). Excess dye was removed by 3-fold washing with buffer (5 mM HEPES, 140 mM NaCl, 1 mM MgCl2, 5 mM KCl, 10 mM glucose, 2.5 mM probenecid, 1.25 mM CaCl2, 0.1% BSA; all further incubations were done in this buffer). Cells were plated at a density of 150 000 cells/well in dark-wall 96-well plates (Costar, Cambridge, Mass.) and sedimented by centrifugation (1 minute). The cells were pre-incubated for 20 minutes with test compound. Then, 10^−7 M hMCP-1 (Bachem, Bubendorf, Switserland) was added. Changes in intracellular free Ca^2+ concentration were measured using the Fluorescent Imaging Plate Reader (FLIPR, Molecular Devices, Munchen, Germany). Fluorescence was recorded every second from 10 seconds before the addition of the MCP-1 till 2 minutes after the addition (first minute: 60 records with 1 second intervals, second minute 20 records with 3 second intervals).
The maximal fluorescence obtained during this time frame was used for further calculations.
Table 4 reports pIC50 values obtained in the above-described test for compounds of formula (I). pIC50 defines −log IC50 wherein IC50 is the molar concentration of the test compound which inhibits 50% of specific MCP-1 induced Ca^2+ flux.

IC50 [µM]	SMILES
2.14	COC(=O)c1c[nH]c(=S)n1C(c1ccc(Cl)c(Cl)c1)C1CC1 (centres unmarked) [Compound 2]
0.0279	COC(=O)c1[nH]c(=S)n(C(c2ccc(Cl)c(Cl)c2)C2CC2)c1C(=O)OC (centres unmarked) [Compound 4]
0.0398	CCC(c1ccc(Cl)c(Cl)c1)n1c(C#N)c(C(=O)OC)[nH]c1=S (centres unmarked) [Compound 5]
0.7	CCC(c1ccc(Cl)c(Cl)c1)n1c(C#N)cnc1S (centres unmarked) [Compound 7]
0.035	CCC(c1ccc(Cl)c(Cl)c1)n1c(C(N)=O)cnc1S (centres unmarked) [Compound 8]
0.204	CCC(c1ccc(F)c(C(F)(F)F)c1)n1c(C(N)=O)cnc1S (centres unmarked) [Compound 10]
0.347	CCOC(=O)c1cnc(S)n1C(CC)c1ccc(F)c(C(F)(F)F)c1 (centres unmarked) [Compound 12]
0.191	CCC(c1ccc(Cl)c(Cl)c1)n1c(C(=O)OC)cnc1S (centres unmarked) [Compound 15]
1.02	CC[C@H](c1ccc(Cl)c(Cl)c1)n1c(C(=O)OC)cnc1S [Compound 16]
0.12	CCC(c1ccc(Cl)c(Cl)c1)n1c(S)nc(C(N)=O)c1C#N (centres unmarked) [Compound 19]
1.02	CCC(c1ccc(F)c(F)c1)n1c(C(=O)OC)cnc1S (centres unmarked) [Compound 21]
3.55	CCCC(c1ccc(Cl)cc1)n1c(C(=O)OC)c[nH]c1=S (centres unmarked) [Compound 25]
3.72	COC(=O)c1c[nH]c(=S)n1C(C)c1ccc(Cl)cc1 (centres unmarked) [Compound 31]
2.24	CCC(c1ccc(F)c(F)c1)n1c(C(=O)NC)cnc1S (centres unmarked) [Compound 36]
0.00968	CCC(c1ccc(Cl)c(Cl)c1)n1c(S)nc(C(=O)OC)c1C(=O)OC (centres unmarked) [Compound 37]
1.38	CCC(c1ccc(Cl)c(Cl)c1)n1c(C(=O)O)c(C(=O)O)[nH]c1=S (centres unmarked) [Compound 40]
3.13	CCCCNC(=O)c1cnc(S)n1C(CC)c1ccc(F)c(F)c1 (centres unmarked) [Compound 44]
2.48	CCC(c1ccc(F)c(F)c1)n1c(C(=O)NCC(C)C)cnc1S (centres unmarked) [Compound 45]
0.0355	COC(=O)c1[nH]c(=S)n(Cc2ccc(Cl)c(Cl)c2)c1C(=O)OC [Compound 47]
2.29	CCC(c1ccc(F)c(C(F)(F)F)c1)n1c(C(=O)NC)c[nH]c1=S (centres unmarked) [Compound 49]
1.78	CCC(c1ccc(Cl)c(Cl)c1)n1cc(C(N)=O)[nH]c1=S (centres unmarked) [Compound 51]
8.13	CCC(c1ccc(Cl)c(Cl)c1)n1cc(C(=O)NC)[nH]c1=S (centres unmarked) [Compound 52]

Second part, the compound before the results:

SMILES	IC50 [µM]
CCC(c1ccc(F)c(C(F)(F)F)c1)n1c(C(=O)OC)cnc1S (centres unmarked) [Compound 1]	0.933
CCC(c1ccc(F)c(C(F)(F)F)c1)n1c(S)nc(C(=O)OC)c1C(=O)OC (centres unmarked) [Compound 3]	0.0174
CCC(c1ccc(Cl)c(Cl)c1)n1c(C(=O)OC)c(C)[nH]c1=S (centres unmarked) [Compound 6]	0.263
CCC(c1ccc(F)c(F)c1)n1c(C(N)=O)cnc1S (centres unmarked) [Compound 9]	0.465
CCC(c1ccc(Cl)c(Cl)c1)n1cc(C(=O)OC)nc1S (centres unmarked) [Compound 14]	0.355
CC[C@@H](c1ccc(Cl)c(Cl)c1)n1c(C(=O)OC)cnc1S [Compound 17]	0.0871
CCC(c1ccc(Cl)c(Cl)c1)n1c(S)nc(C(N)=O)c1C(N)=O (centres unmarked) [Compound 20]	0.0569
CCC(c1ccc(Cl)c(Cl)c1)n1c(C(=O)O)cnc1S (centres unmarked) [Compound 23]	3.31
CCCC(c1cccc(Cl)c1)n1c(C(=O)OC)c[nH]c1=S (centres unmarked) [Compound 24]	0.891
COC(=O)c1cnc(S)n1C(C)c1ccc(Cl)c(Cl)c1 (centres unmarked) [Compound 32]	0.257
CCC(c1ccc(Cl)c(Cl)c1)n1c(C(=O)OC(C)C)cnc1S (centres unmarked) [Compound 33]	0.263
CCC(c1ccc(Cl)c(Cl)c1)n1c(C(=O)NC)cnc1S (centres unmarked) [Compound 34]	0.219
CCCC(c1ccc(Cl)c(Cl)c1)n1c(C(=O)OC)cnc1S (centres unmarked) [Compound 35]	0.138
CCC(c1ccc(F)c(F)c1)n1c(S)nc(C(=O)OC)c1C(=O)OC (centres unmarked) [Compound 39]	0.00724
CCC(c1ccc(C(F)(F)F)c(F)c1)n1c(C(=O)OC)cnc1S (centres unmarked) [Compound 43]	2
CCC(c1ccc(C(F)(F)F)c(F)c1)n1c(S)nc(C(=O)OC)c1C(=O)OC (centres unmarked) [Compound 48]	0.0891
